# Test results as given in patent publication US20100184596A1, “METHOD FOR THE CONTROL OF WEEDS IN TURF” (SYNGENTA CROP PROTECTION, INC., priority 2007, published 2010).
# System: turfgrass
# Assay: Example B4, conclusion in words
# Assay type: in vivo
# Details: applied with Formula I
# Description: The phytotoxicity to turfgrass of the compound of formula I in combination with various safeners was tested. The combinations were applied by post emergence spray application. Percentage phytotoxicity assessments were taken at various timepoints. The safeners tested in these trials were cloquintocet-mexyl, cyprosulfamide, a compound of formula 2.3, and isoxadifen-ethyl.
row,SMILES,"safener effectiveness, in words"
1,COc1ccccc1C(=O)NS(=O)(=O)c1ccc(C(=O)NC2CC2)cc1 [cyprosulfamide],particular effective safeners
2,CNC(=O)Nc1ccc(S(=O)(=O)NC(=O)c2ccccc2OC)cc1 [Formula 2.3],particular effective safeners
